In PMC7272640, “Molecular docking, synthesis and biological evaluation of Vascular Endothelial Growth Factor (VEGF) B based peptide as antiangiogenic agent targeting the second domain of the Vascular Endothelial Growth Factor Receptor 1 (VEGFR1D2) for anticancer application” (Signal Transduction and Targeted Therapy, 2020):
Where a SMILES comes first, the peptide text is derived from it.

Experiments:
[1] = biological target: VEGFR1D2; assay: Microscale thermophoresis (MST) binding of VGB3 to VEGFR1D2
Protocol: Previously, a tight association between VEGFR1 D2 and VEGF has also been reported (113pM).[4]
The binding affinity of peptide to its cognate receptor was measured by Microscale thermophoresis (MST) on a Nanotemper Monolith NT.115 instrument (Nanotemper Technologies GmbH). Purified VEGFR1D2 was freshly labeled with the Monolith His-Tag RED-tris-NTA labeling dye according to the supplied protocol (Nanotemper Technologies, GmbH). The labeled protein was concentrated using a PES centrifugation filter (3 kDa cutoff; VWR). Measurements were done in MST buffer (50 mM Tris, 250 mM NaCl, pH=7) in standard capillaries (K002; Nanotemper Technologies GmbH). The final concentrations of either labeled protein in the assay were 25 nM. The ligands (VGB3) was titrated in 1:1 dilutions following manufacturer’s recommendations and starting from 0.25 mM. All binding reactions were incubated for 10 min at room temperature followed by centrifugation at 20,000 g before loading into capillaries. All measurements were performed in triplicate using automatically assigned 20% LED and 60% MST power; Laser On-time was 30 sec and Laser Off time was 5 sec.

[2] = system: HUVEC; assay: HUVEC Cytodex 3D bead sprouting assay; type: cell-based, human; conditions: HUVEC Cytodex beads in collagen gel; VGB3 0, 0.015, 0.03, 0.061 μM; VEGF (0.75 pM; method: 0.03 μg/ml VEGF-A); 24 h
Protocol: The fibrin or collagen sprouting angiogenesis assay was performed as previously described. Type I collagen was obtained as previously reported. HUVECs were allowed to attach to Cytodex microcarrier beads (Amersham Pharmacia Biotech, Sweden) by incubation in DMEM medium with 10% FBS for 4 h at 37 °C in 5% CO2 (60 μL of […] Cytodex beads were coated with 400 μl of HUVECs). EC-covered beads were embedded into the collagen gel under sodium bicarbonate conditions (Sigma, St. Louis, Missouri, USA), distributed in 96-well plates (100 μl/well), and placed in a 37 °C, 5% CO2 incubator for 30 min. Then DMEM supplemented with 2% FBS with a range of concentrations (0, 0.015, 0.03, 0.061 μM) of VGB3 in the presence of (0.03 μg.ml^-1) VEGF-A were added on top of the collagen gel. After 24 h, angiogenesis was monitored microscopically. All the capillary-like structures were photographed using an inverted microscope (Olympus BX-51, Japan) with a scale bar of 20 μm, and the number of sprouts grown on beads was quantified by ImageJ software. The assays were performed in triplicate.

[3] = system: 4T1 mammary carcinoma tumor; assay: In vivo antitumor efficacy, 4T1 mammary carcinoma tumor model; set-up: species or system Female BALB/c mice
Protocol: Female BALB/c mice (5–7 weeks) were purchased from the Laboratory Animal Center of the Iran Pasteur Institute and maintained under standardized environmental conditions: 12 h light-dark phases, with free access to food and water. For treatment with VGB3, Tumor cells (4T1; 1×10^6 cells/500 μl or 1×10^5 cells/50 μl) were injected subcutaneously into the right flanks of mice (n=3–5). To generate the metastatic model, 4T1 tumor models were sterilized, excised from the breast cancer-bearing BALB/c mice, cut into pieces of <0.3 cm3, and subcutaneously implanted into the animals' right flanks under ketamine (100 mg/kg, i.p.) and xylazine (10 mg/kg, i.p.) anesthesia. Animals carrying tumors of size ~100mm3 were randomized to 6 mice/group (n=6). The treatment groups received 0.02, 0.1, 0.2 or 0.5 mg/kg of VGB3 on alternate days and the control group received PBS i.v. into the mice for 19 days from day 13. The tumor volume was measured every 5 days by a digital Vernier caliper (Mitutoyo, Japan), using the following formula: v=a^2×b×0.52 (where a is the shortest and b is the longest diameter). All studies were performed under the guidelines and with the approval of the Institutional Animal Care and Use Committee (IACUC) of Tehran University of Medical Sciences.

[4] = system: HUVEC; type: cell-based, human
Protocol: 2× 10^3 HUVEC and 4T1 cell-line were cultured in DMEM medium supplemented with 10% FBS at 37 °C with 5% CO2 in 96-well plate. After 24 h, The cells were incubated in the media supplemented with 2% FBS, different concentrations (0, 0.015, 0.03, 0.061 μM) of VGB3 in the presence of (0.03 μg.ml^-1) VEGF-A (Sigma, St. Louis, MO) for 24 and 48 respectively. Then, cell proliferation was quantified by 3-(4,5–dimethylthiazol-2-yl)-2 ,5-diphenyl tetrazolium bromide (MTT) (Sigma, St. Louis, MO) solution (5 mg/mL) in PBS (pH 7.4) was added to each well and the plates were incubated in the dark at 37 °C for 4 h. Then the insoluble purple formazan product was dissolved by dimethyl sulfoxide (DMSO). Absorbance was measured at 570 nm using an ELISA plate reader. The assay was performed in triplicate.

CC(C)C[C@@H]1NC(=O)CNC(=O)[C@H](CC(=O)O)NC(=O)[C@H](CC(=O)O)NC(=O)[C@@H]2CCCN2C(=O)[C@@H]2CCCN2C(=O)[C@H](CCCNC(=N)N)NC(=O)[C@@H](NC(=O)[C@@H](N)CCC(=O)O)CSSC[C@@H](C(=O)O)NC1=O [VGB3] (HELM PEPTIDE1{E.C.R.P.P.D.D.G.L.C}$PEPTIDE1,PEPTIDE1,2:R3-10:R3$$$V2.0)
Kd ([1]; MST, Monolith NT.115, His-Tag RED-tris-NTA labelled VEGFR1D2 25 nM, VGB3 titrated in 1:1 dilutions from 0.25 mM, 50 mM Tris, 250 mM NaCl, pH=7, 10 min at room temperature, triplicate, read-out: dissociation constant (Kd)): 1960 ± 690 nM
binding constant fold lower than Kd of VEGFA to entire extracellular portion of VEGFR1 ([1]; VGB3 Kd 1.96 μM vs VEGFA Kd ~50 nM): 40 fold
angiogenesis in vitro (sprouting) [2]: inhibits angiogenesis in vitro
inhibitory effects on tumor growth and angiogenesis compared with bevacizumab ([3]; VGB3 0.2 mg/kg i.v. once in every 2 days vs reported bevacizumab 2 mg/kg, twice per week): definitely higher
tumor growth inhibition vs PBS control ([3]; i.v., alternate days, 19 days from day 13, n = 6, dose of the statement not specified): Significant inhibition of tumor growth
IC50 ([4]; 48 h): 30 nM
inhibition of endothelial cell proliferation compared with other reported VEGF-B based peptides ([4]; comparison with refs 2,4,5): more effectively inhibited endothelial cell proliferation
inhibition of endothelial cell proliferation compared with clinically used drugs such as Bevacizumab ([4]; endothelial cell culture conditions, comparison with refs 2,4,5): more potent
